As a reminder, the mass density is mass per unit of volume. A word on the vapor or sublimation pressure: it is the equilibrium pressure above the liquid or solid. As a reminder, the refractive index is the speed of light in vacuum divided by its phase velocity in the sample.

The values that follow come from the NIST ThermoML archive (doi:10.1016/j.fluid.2006.07.003).

SMILES strings stand for the structures. Numbers after ± are expanded uncertainties.

For series [1] the following is noted: Liquid; for mass density: 298.15 K, 101.33 kPa.
The nature of series [2]: refractive index (Na D-line) (dimensionless). To be noted: 298.15 K; 101.33 kPa; Liquid; Standard Abbe refractometry.

With `CCCO` [propan-1-ol], the mass density in series [1] was 799.62 ± 0.48 kg/m3. The “vapor or sublimation pressure” value in series [1] (369.75 K) amounted to 101.3 ± 1.8 kPa. Moreover, the refractive index in series [2] turned out to be 1.3836 ± 0.0007.

Consider `CCCCCO` [pentan-1-ol], for which, in series [1], the mass density was found to be 810.89 ± 0.77 kg/m3. Also, the “vapor or sublimation pressure” value in series [1] (410.62 K) is 101.3 ± 1.8 kPa. Further, the refractive index in series [2] is on record as 1.408 ± 0.0008.

For `CCCOCCC` [dipropyl ether], the mass density in series [1] was found to be 741.81 ± 0.91 kg/m3. The “vapor or sublimation pressure” value in series [1] (363.16 K) is listed as 101.3 ± 1.8 kPa. For the same molecule, the refractive index in series [2] is recorded as 1.3784 ± 0.0008.
